In patent publication US20210235699A1, “Adjuvant Compositions Comprising a Tetramethylguanidine and a 4-Isothiazolin-3-One” (Lonza, LLC, priority 2018, published 2021):
Entries after “also recorded” stand apart in the source; their conditions may differ. Marks after values point to notes of the source that are not given here.

Columns and labels:
[1] = test system: combined bacterial test inoculum: Acinetobacter calcoaceticus, Escherichia coli, Pseudomonas aeruginosa, Enterobacter cloacae; test: Bacterial challenge test (ASTM D2574-97, modified) in standard water based interior paint; format: cell-based; set-up: key to Streak plate rank, 1st inoculation 24 h / Streak plate rank, 1st inoculation 72 h / Streak plate rank, 2nd inoculation 72 h / Streak plate rank, 3rd inoculation 24 h: 0 = no growth; 1 = 1-5 Colony Forming Unit (cfu); 2 = 6-15 cfu; 3 = 16-30 cfu; 4 = 31-45 cfu; 5 = greater than 45 cfu; 5c = Confluent Growth; conditions: for Dilution plate count, 3rd inoculation 72 h / Streak plate rank, 3rd inoculation 24 h: inoculum 2.50%; for Streak plate rank, 2nd inoculation 72 h: inoculum 5%; for Streak plate rank, 1st inoculation 24 h / Streak plate rank, 1st inoculation 72 h: inoculum 10%
Protocol: (§1) The following bacterial and fungal challenge tests were performed to ascertain whether low concentrations of 4-isothiazolin-3-one biocidal active compounds, pyrithione, coumarin or guanidine adjuvant are sufficient to prevent microbial contamination of final products when deliberately inoculated with spoilage microbes.
(§2) The tests were performed according to ASTM standard D2574-97 (Standard Test Method for Resistance of Emulsion Paints in the Container to Attack by Microorganisms, ASTM International, West Conshohocken, Pa.), with higher inoculation volumes and frequency. A standard water based interior paint was used as the test substrate. Sample sizes of 20 g test substrate were used and the test samples were prepared in a sterile 30 mL square Nalgene bottle.
The bacteria were grown on pH 5, 7, or 9 Trypticase Soy Agar (TSA) lawns. The bacteria were grown individually on TSA and harvested by using sterile buffered water. The bacterial lawns were washed off with 30 mL of sterile water and an equal volume of each individual cell suspension was withdrawn from each serum bottle to make a combined cell suspension. Combined bacterial suspension were about 10^7 cfu/mL, which provides about 10^6 cfu/mL in the sample.
(§3) The following microorganisms were used for inoculation of the tested samples:
For the bacterial challenge testing, each sample was inoculated with a combined bacterial test inoculum volume equivalent to 10% of the total initial sample volume for the initial inoculation, 5% of the total initial sample volume for the second inoculation and 2.5% of the total initial sample volume for the third inoculation. Inoculum volumes for the fungal challenge tests were 2%, 1% and 0.5% of the total initial sample volume, respectively. Samples were inoculated every 96 h.
(§4) Concentrations of biocidal active compounds and adjuvants refer to the final concentration in the test samples prior to the first inoculation.
(§5) The efficacy of the added agent in each sample was monitored by means of a streak plate test after 24 hours (all inoculations) and 72 hours of inoculation (first and second inoculation). At 72 hours of the third inoculation performed, a dilution plate count was performed in order to obtain a quantitative measurement of contamination (cfu/mL). A count of less than 10 colony forming units per mL ([…]) is considered to show no measurable contamination. For the streak plate tests, bacterial samples were streaked on Tryptic Soy Agar (TSA) and incubated for 48 hours at 30° C. before reading. Fungal samples were streaked on Potato Dextrose Agar (PDA) and incubated for 5 days at 25° C. before reading.
(§6) The streak plates were ranked from 0-5c according to the degree of microbial growth:
(§7) The challenge tests were performed as described above.

[2] = test system: fungal test inoculum: Aspergillus niger, Penicillium funiculosum, Candida albicans; test: Fungal challenge test (ASTM D2574-97, modified) in standard water based interior paint; format: cell-based; set-up: key to Streak plate rank, 2nd inoculation 72 h / Streak plate rank, 1st inoculation 72 h / Streak plate rank, 1st inoculation 24 h / Streak plate rank, 2nd inoculation 24 h / Streak plate rank, 3rd inoculation 24 h: 0 = no growth; 1 = 1-5 Colony Forming Unit (cfu); 2 = 6-15 cfu; 3 = 16-30 cfu; 4 = 31-45 cfu; 5 = greater than 45 cfu; 5c = Confluent Growth; conditions: for Dilution plate count, 3rd inoculation 72 h / Streak plate rank, 3rd inoculation 24 h: inoculum 0.50%; for Streak plate rank, 1st inoculation 24 h / Streak plate rank, 1st inoculation 72 h: inoculum 2%
Protocol: as §1, §2
Fungal lawns were grown on Potato Dextrose Agar (PDA) or Sabouraud Dextrose Agar (SAB). Individual fungal spore suspensions were harvested by adding 10 mL of sterile 0.05% Triton X to fungal lawns. The lawns were then gently agitated by rubbing a sterile swab on the lawn, being careful not to puncture the agar. The liquid was then aseptically transferred to a sterile bottle containing sterile glass beads. The top of the bottle was closed and the bottle shaken vigorously to break up any chunks in the suspension. The shaken spore suspension was decanted through sterile fibers into another sterile bottle. The decanted spore suspension was counted using a hemocytometer. Once the spore counts were determined, each suspension was diluted in order to obtain 10^6 spore/mL. Each diluted fungal suspension was poured into a sterile container.
as §3
For the bacterial challenge testing, each sample was inoculated with a combined bacterial test inoculum volume equivalent to 10% of the total initial sample volume for the initial inoculation, 5% of the total initial sample volume for the second inoculation and 2.5% of the total initial sample volume for the third inoculation. […] Samples were inoculated every 96 h.
as §4, §5, §6, §7

[3] = test system: bacterial test inoculum (Acinetobacter calcoaceticus, Escherichia coli, Pseudomonas aeruginosa, Enterobacter cloacae); test: Quick kill testing in pre-contaminated standard interior paint (dilution-plate counts); format: cell-based; conditions: for Dilution-plate count T4 / Dilution-plate count T8 / Dilution-plate count T24: Table 9, 30° C.; for Dilution-plate count T4: 4 hours after treatment; for Dilution-plate count T8: 8 hours after treatment; for Dilution-plate count T24: 24 hours after treatment
Protocol: An additional test was performed to analyze how quickly the tested biocidal compositions will recover a sample from microbial spoilage. For each sample, 20 g of a pre-contaminated standard interior paint formulation serving as a test substrate was weighed into a sterile container. All samples were contaminated with the bacterial test inoculum described above (10% of the of the total initial sample volume).
A dilution-plate count was performed on the untreated sample (0 hour time point) and a biocidal composition added aseptically to each sample. Subsequent to this treatment, further dilution-plate counts were performed at fixed time intervals (time points are given in hours) on each sample, including an untreated negative control. All samples were incubated at 30° C.±2° C.
Concentrations in ppm refer to final concentrations of the biocidal compositions in the test samples. The relative amounts of active compounds and adjuvant in the tested biocidal compositions were as indicated below: […]

[4] = neutral pH; cited from earlier work
[5] = test system: bacteria, fungi and yeast; conditions: cited from earlier work

## CN(C)C(=N)N(C)C [TMG, 1,1,3,3-tetramethylguanidine]
[1]; 750 ppm
  Dilution plate count, 3rd inoculation 72 h: 1.7 × 10^5 cfu/mL
  Streak plate rank, 3rd inoculation 24 h: 5c
  Streak plate rank, 2nd inoculation 72 h: 5c
  Streak plate rank, 1st inoculation 24 h: 5 (5 = greater than 45 cfu)
  Streak plate rank, 1st inoculation 72 h: 5c
[1]; 1000 ppm
  Dilution plate count, 3rd inoculation 72 h: 2.1 × 10^6 cfu/mL
  Streak plate rank, 3rd inoculation 24 h: 5c
  Streak plate rank, 2nd inoculation 72 h: 5c
  Streak plate rank, 1st inoculation 24 h: 5 (5 = greater than 45 cfu)
  Streak plate rank, 1st inoculation 72 h: 5 (5 = greater than 45 cfu)
[1]; 1250 ppm
  Dilution plate count, 3rd inoculation 72 h: 6.6 × 10^6 cfu/mL
  Streak plate rank, 3rd inoculation 24 h: 5c
  Streak plate rank, 2nd inoculation 72 h: 5c
  Streak plate rank, 1st inoculation 24 h: 0
  Streak plate rank, 1st inoculation 72 h: 0
[1]; 1500 ppm
  Dilution plate count, 3rd inoculation 72 h: <10 cfu/mL
  Streak plate rank, 3rd inoculation 24 h: 3 (3 = 16-30 cfu)
  Streak plate rank, 2nd inoculation 72 h: 0
  Streak plate rank, 1st inoculation 24 h: 0
  Streak plate rank, 1st inoculation 72 h: 0
[1]; in combination with BIT and BBIT, Tables 3 and 5
  effect of guanidine on bactericidal activity of 4-isothiazolin-3-ones (in words): significantly improved
[2]; 750 ppm
  Dilution plate count, 3rd inoculation 72 h: <10 cfu/mL
  Streak plate rank, 3rd inoculation 24 h: 3 (3 = 16-30 cfu)
  Streak plate rank, 1st inoculation 24 h: 4 (4 = 31-45 cfu)
  Streak plate rank, 1st inoculation 72 h: 0
[2]; 750 ppm, inoculum added was 2%
  Streak plate rank, 2nd inoculation 72 h: 1** (1 = 1-5 Colony Forming Unit (cfu))
[2]; 1000 ppm
  Dilution plate count, 3rd inoculation 72 h: <10 cfu/mL
  Streak plate rank, 3rd inoculation 24 h: 3 (3 = 16-30 cfu)
  Streak plate rank, 1st inoculation 24 h: 4 (4 = 31-45 cfu)
  Streak plate rank, 1st inoculation 72 h: 0
[2]; 1000 ppm, inoculum added was 2%
  Streak plate rank, 2nd inoculation 72 h: 0**
[2]; 1250 ppm
  Dilution plate count, 3rd inoculation 72 h: <10 cfu/mL
  Streak plate rank, 3rd inoculation 24 h: 3 (3 = 16-30 cfu)
  Streak plate rank, 1st inoculation 24 h: 2 (2 = 6-15 cfu)
  Streak plate rank, 1st inoculation 72 h: 0
[2]; 1250 ppm, inoculum added was 2%
  Streak plate rank, 2nd inoculation 72 h: 0**
[2]; 1500 ppm
  Dilution plate count, 3rd inoculation 72 h: <10 cfu/mL
  Streak plate rank, 3rd inoculation 24 h: 3 (3 = 16-30 cfu)
  Streak plate rank, 1st inoculation 24 h: 2 (2 = 6-15 cfu)
  Streak plate rank, 1st inoculation 72 h: 0
[2]; 1500 ppm, inoculum added was 2%
  Streak plate rank, 2nd inoculation 72 h: 0**
[2]; in combination with BIT and BBIT, Tables 4 and 6
  effect of guanidine on fungicidal activity of 4-isothiazolin-3-ones (in words): enhancing effect; also recorded: significantly improved
[3]; 940 ppm
  Dilution-plate count T4: 1.19 × 10^7
  Dilution-plate count T8: 1.02 × 10^7
  Dilution-plate count T24: 4.0 × 10^6
[3]; Tables 8 and 9
  quick kill performance (in words): markedly accelerated the recovery

## Zinc pyrithione
[4]
  solubility in water: 8 ppm

## O=c1[nH]sc2ccccc12 [BIT, 1,2-benzisothiazolin-3-one]
[1]; 50 ppm
  Dilution plate count, 3rd inoculation 72 h: 4.2 × 10^7 cfu/mL
  Streak plate rank, 3rd inoculation 24 h: 5 (5 = greater than 45 cfu)
  Streak plate rank, 2nd inoculation 72 h: 5 (5 = greater than 45 cfu)
  Streak plate rank, 1st inoculation 24 h: 5 (5 = greater than 45 cfu)
  Streak plate rank, 1st inoculation 72 h: 4 (4 = 31-45 cfu)
[2]; 50 ppm
  Dilution plate count, 3rd inoculation 72 h: 2.0 × 10^2 cfu/mL
  Streak plate rank, 3rd inoculation 24 h: 5 (5 = greater than 45 cfu)
  Streak plate rank, 1st inoculation 24 h: 5 (5 = greater than 45 cfu)
  Streak plate rank, 1st inoculation 72 h: 2 (2 = 6-15 cfu)
[2]; 50 ppm, inoculum 1%
  Streak plate rank, 2nd inoculation 72 h: 1 (1 = 1-5 Colony Forming Unit (cfu))
[3]; 50 ppm
  Dilution-plate count T4: 1.15 × 10^7
  Dilution-plate count T8: 3.4 × 10^6
  Dilution-plate count T24: 9.4 × 10^5
[5]
  amounts required for a reliable and quick biocidal activity: up to 500 ppm
